The record followed here is PubChem BioAssay (NCI).

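In this assay, cells in 96-well plates receive the compound at five concentrations for 48 hours. Endpoints are linearly interpolated between the surrounding concentrations. GI50 marks 50% less growth. TGI is the concentration that stops growth completely.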

Assay in all cases: NCI tumour cell line growth inhibition, 48 h
Test [1] has as its system NCI-H522 lung.
In test [2] the test system is BT-549 breast.
Test [3] deals with UACC-62 melanoma.
Test [4] deals with LOX IMVI melanoma.
The subject of test [5] is EKVX NSCLC.
In test [6] the test system is MCF7 breast.
Test [7] has as its system OVCAR-4 ovarian.
For test [8], the system named is MDA-MB-231 breast.
In test [9] the test system is ACHN renal.
Test [10] relates to HS 578T breast.

As to `COc1ccc(-c2cc3cc(Cl)cc(Cl)c3oc2=O)cc1OC`, the TGI in [1], in [2], in [3], in test [4], in test [5] and in test [6] was over 100 µM each time. Moreover, the TGI in test [7] was over 100 µM; in test [8] it was over 100 µM; in [9], over 100 µM; in [10], 76.1 µM.
On to `Cc1cc(-c2ccccc2)nc2oc(=O)n(C)c12`, for which the TGI in test [1], in test [2], in test [3], in test [4], in test [5] and in test [6] was over 100 µM each time. Moreover, the TGI in [7], in [8], in test [9] and in test [10] was over 100 µM throughout.
On to `O=C1CC[C@@]23CC(=O)O[C@@H]2CCCC3C1` (stereo partly drawn), for which the TGI in test [1], in test [2], in test [3], in test [4], in [5] and in test [6] was over 100 µM each time. Further, the TGI in test [7], in test [8], in test [9] and in test [10] was over 100 µM each time.
Take `O=C(Nc1nn(C(=O)c2cccnc2)c(=O)s1)c1ccc(Cl)cc1`: the TGI in [1] was 51.7 µM; in [2], over 100 µM; in [3] it was over 100 µM; in test [4], over 100 µM; in test [5], over 100 µM; in test [6] it was over 100 µM. The TGI in test [7] is over 100 µM; in [8], over 100 µM; in [9], over 100 µM; in [10], 60.3 µM.
For the compound `CC1=C(C(=O)OCCO[N+](=O)[O-])C(c2ccccc2[N+](=O)[O-])C(C(=O)OC(C)C)=C(C)N1` (stereo not drawn), the TGI turned out to be 30.5 µM in test [1]; 30.4 µM in test [2]; 28.6 µM in [3]; 32.3 µM in [4]; 53 µM in test [5]; 44.9 µM in [6]. The TGI was 52.3 µM in test [7], 29 µM in test [8], 87.6 µM in test [9] and 41.2 µM in [10].
With `CCOC(=O)N1CCN(c2c(N)nc(C)[nH]c2=O)CC1`, the TGI in [1], in test [2], in test [4], in test [5], in test [6] and in test [7] was over 100 µM throughout. The TGI in [8], in test [9] and in [10] was over 100 µM in each case.
Consider `CC[C@H](NC(=O)OC(C)(C)C)C(=O)NCP(=O)(OCc1ccc([N+](=O)[O-])cc1)OCc1ccc([N+](=O)[O-])cc1`, for which the TGI in test [1] was over 100 µM; in test [2] it was over 100 µM; in test [3], 51.9 µM; in test [4], over 100 µM; in test [6], over 100 µM; in test [7], over 100 µM. Further, the TGI is over 100 µM in test [8], 69.7 µM in test [9] and over 100 µM in test [10].
In the case of `CC(C)=CCc1c(O)cc2oc(-c3ccc(O)cc3O)cc(=O)c2c1O`, the TGI was 53.6 µM in test [1]; over 76.2 µM in test [2]; 34.6 µM in [3]; 59.1 µM in test [4]; over 100 µM in test [5]; over 65.6 µM in test [6]. For the same compound, the TGI in test [7] was 50.8 µM; in test [8], 67.2 µM; in test [9] it was 77 µM; in test [10], over 94 µM.
For the compound `CO[P@@]1(=O)O[C@@H](c2ccccc2)[C@H](O)[C@]1(O)c1ccccc1`, the TGI is over 100 µM in [1]; over 100 µM in test [2]; over 100 µM in [3]; over 100 µM in test [4]; 60.4 µM in [5]; over 100 µM in test [6]. Further, the TGI in test [7], in [8], in test [9] and in [10] was over 100 µM each time.
As to `OC(CC(O)(C(F)(F)Cl)C(F)(F)Cl)c1ccccc1` (stereo not drawn), the TGI in [1], in [2], in [3], in test [4], in [5] and in test [6] was over 10 µM in each case. The TGI in test [7], in [8], in [9] and in test [10] was over 10 µM each time.
Consider `Cc1c(C(=O)NNc2ccccc2)n2c(=S)[nH]nc2c2ccccc12`, for which the TGI in [1], in [2], in test [3], in [4], in test [5] and in test [6] was over 100 µM throughout. The TGI in [7], in test [8], in [9] and in test [10] was over 100 µM in each case.
Regarding `CC(C)=CCC[C@@H](C)C1=C(Nc2ccccc2F)C(O)=C(C)C(=O)C1=O`, the TGI was 17.1 µM in test [1]; over 100 µM in test [2]; 22.6 µM in [3]; over 100 µM in [4]; over 100 µM in test [5]; 81.6 µM in test [6]. Further, the TGI in test [7] is over 100 µM; in test [8], over 100 µM; in test [9], 14.3 µM; in [10], 57.1 µM.
`CCOC(=O)C(NC(=O)c1cccc(Cl)c1)(Nc1cccc(C)c1)C(F)(F)F` (stereo not drawn): the TGI in [1] was determined as 20.5 µM; in test [2], 26.1 µM; in test [3], 28.5 µM; in [4], 30.7 µM; in [5], 63.1 µM; in test [6], 39 µM. Also, the TGI in [7] came out at 62.8 µM; in [8], 41.6 µM; in test [9], 29.8 µM; in [10] it was 49.4 µM.
As for `O=C([C@H](O)[C@@H](O)c1cccc(Cl)c1)C12CC3CC(CC(C3)C1)C2`, the TGI was found to be 5.04 µM in test [1]; 3.74 µM in [2]; 3.32 µM in [3]; 2.65 µM in test [4]; 4.38 µM in test [5]; 2.77 µM in test [6]. For the same compound, the TGI stood at 7.49 µM in test [7], 5.44 µM in test [8], 3.56 µM in [9] and 6.48 µM in test [10].
For the compound `CCC1(CC)C(=O)N(C(=O)c2cc(OC)c(OC)c(OC)c2)N(C(=O)c2cc(OC)c(OC)c(OC)c2)C1=O`, the TGI in [1], in test [2], in test [3], in test [4], in [5] and in [6] was over 50 µM each time. Besides, the TGI in test [7], in test [8], in test [9] and in test [10] was over 50 µM each time.
Take `C[C@H]1[C@H](C)CC[C@]2(C(=O)OC3OC(CO)C(O)C(O)C3O)CC[C@]3(C)C(=CC[C@@H]4[C@@]5(C)C[C@@H](O)[C@@H]6OC(=O)c7cc(O)c(O)c(O)c7-c7c(cc(O)c(O)c7O)C(=O)OC[C@@]6(CO)[C@@H]5CC[C@]43C)[C@H]12` (stereo partly drawn): the TGI in test [1] is over 100 µM; in [2], over 100 µM; in [3] it was over 100 µM; in test [4], 35.9 µM; in [5] it was over 100 µM; in [6], 36.4 µM. Also, the TGI was 75.3 µM in [7], 37 µM in test [8], over 100 µM in test [9] and over 100 µM in [10].
Consider `CS(=O)(=O)Nc1ccc2ccccc2c1`, for which the TGI in test [1], in test [2], in [3], in [4], in test [5] and in test [6] was over 100 µM each time. For the same compound, the TGI in [7], in test [8], in [9] and in test [10] was over 100 µM throughout.
For the compound `C=C(C)[C@H]1CC23C(=O)[C@@](C)(C[C@H]2C1(C)C)C(=O)C(C(=O)C(C)C)=C3O`, the TGI in test [1] stood at 36.8 µM; in test [2], 37.7 µM; in test [3], 29.8 µM; in [4], 38.9 µM; in [5], 28.8 µM; in [6] it was 32.6 µM. For the same compound, the TGI in test [7] amounted to 34.9 µM; in [8] it was 32.2 µM; in test [9], 30.4 µM; in test [10], 58.1 µM.
Regarding `CSc1nc(Cl)c2c(n1)Sc1nc3ccccc3n1C2O` (stereo not drawn), the TGI in test [1] was 7.28 µM; in [2], over 84.4 µM; in test [3], over 100 µM; in test [4], 3.9 µM; in test [5] it was over 100 µM; in test [6], over 100 µM. Further, the TGI in [7] was over 100 µM; in test [8] it was over 100 µM; in test [9], over 100 µM; in [10], over 68.8 µM.
For the compound `Cc1cccc2c1CC(Cc1ccccc1C(=O)O)C2=O` (stereo not drawn), the TGI in test [1], in test [2], in test [3], in test [4], in [5] and in test [6] was over 100 µM each time. For the same compound, the TGI in test [7], in [8], in [9] and in test [10] was over 100 µM each time.
For the compound `CSc1ncc2c(n1)-c1ccccc1OC2NC1CC1` (stereo not drawn), the TGI is 82.5 µM in test [1]; over 100 µM in test [2]; over 100 µM in [3]; over 100 µM in test [4]; over 100 µM in test [5]; over 100 µM in test [6]. Moreover, the TGI in test [7], in test [8], in [9] and in test [10] was over 100 µM in each case.
Consider `CCN(CC)CCCCNc1c2ccc(Cl)cc2nc2ccc(OC)cc12`, for which the GI50 is 0.397 µM in [1]; 1.85 µM in [2]; 1.69 µM in [3]; 0.213 µM in test [4]; 0.608 µM in test [5]; 0.294 µM in [6]. For the same compound, the GI50 in [7] is 0.364 µM; in [8], 0.478 µM; in [9], 0.371 µM; in [10] it was 1.83 µM. Also, the TGI in test [1] was determined as 2.66 µM; in [2], 3.77 µM; in test [3], 3.47 µM; in test [4], 0.583 µM; in test [5], 3.98 µM; in [6], 1.69 µM. Besides, the TGI in test [7] turned out to be 2.44 µM; in test [8], 2.11 µM; in test [9], 2.27 µM; in test [10], 4.76 µM.
Turning to `CC(=O)Oc1ccn2nc(C)c(Br)c2c1`, the TGI in test [1] was 97.1 µM; in test [2], over 100 µM; in [3], over 100 µM; in test [4] it was over 100 µM; in test [5], over 100 µM; in test [6], over 100 µM. The TGI in test [7], in test [8], in test [9] and in test [10] was over 100 µM each time.
With `COC1(CC[C@H](C)COC2OC(CO)C(O)C(O)C2O)O[C@H]2C[C@H]3[C@@H]4CC=C5C[C@@H](OC6OC(CO)C(OC7OC(C)C(O)C(O)C7O)C(O)C6OC6OC(C)C(O)C(O)C6O)CC[C@]5(C)[C@H]4CC[C@]3(C)[C@H]2[C@@H]1C` (stereo partly drawn), the TGI in test [1] was determined as 5.31 µM; in test [2] it was 13.1 µM; in [3] it was 21.6 µM; in [4], 3.6 µM; in test [5] it was 98.8 µM; in [6], 39.8 µM. In addition, the TGI came to 18 µM in [7], 21.1 µM in [8], 29.4 µM in [9] and 6.72 µM in test [10]. For the same compound, the GI50 in [3] was 6.95 µM.
Consider `O=c1c2cc([N+](=O)[O-])ccc2oc2nc3n(c(=O)c12)CCCS3`, for which the TGI in [1], in test [2], in test [3], in [5], in test [6] and in [7] was over 100 µM in each case. Further, the TGI in test [8], in test [9] and in test [10] was over 100 µM in each case.
